Experimental data as given in patent publication US20220079962A1, “NUTRITIONAL COMPOSITION COMPRISING 2'FUCOSYLLACTOSE AND DIETARY BUTYRATE” (N.V. Nutricia, priority 2019, published 2022).

What was measured:
[1] = test system: T84 human intestinal epithelial cells; assay: T84 monolayer barrier integrity (TEER) with IL-4; type: cell-based
Protocol: T84 human intestinal epithelial cells are commonly used to study intestinal barrier integrity in vitro. T84 cells (ATCC, USA) were cultured on 12 mm transwell inserts (0.4 μm, Corning Costrar, USA) in DMEM-F12 glutamax with penicillin-streptomycin (100 IU/ml), supplemented with 5% FBS-Hl. T84 cells were used 14 days after reaching confluence. Monolayers of T84 cultured on transwell filters were pre-incubated for 48 h with or without butyrate. These samples were subsequently incubated for an additional 48 h in the presence of IL-4 (25 ng/ml). IL-4 was added to the basolateral compartment; medium and additives were changed every 24 h.
Epithelial barrier integrity was assessed by measuring transepithelial resistance (TEER; Ω×cm^2) with the epithelial volt-ohm meter (EVOM; World Precision Instruments, Germany).

[2] = test system: human peripheral blood mononuclear cells (PBMC); assay: PBMC cytokine levels, unstimulated condition; type: cell-based
Source text: Isolation of PBMC from healthy donors: Human peripheral blood mononuclear cells (PBMC) from healthy donors were isolated from buffy coats (Sanquin, Amsterdam, the Netherlands). PBMC were obtained by centrifugation using Leucosep tubes (Greiner Bio-One). […] After lysis, the PBMC were resuspended in freezing medium (70% RPMI 1640 medium (Gibco, Thermo Fisher Technologies) supplemented with 10% heat-inactivated FCS and 100 U/ml penicillin-streptomycin, 20% heat-inactivated FCS and 10% DMSO (Sigma)) and cryopreserved. PBMC activation model: PBMC (0.2.10^6 cell/well) were cultured in 96-well flat bottom plates (Corning). For 24 hours the cells were pre-incubated with 2'-FL (Jennewein), 3'-GL (0-0.3% w/v; […] Sigma Aldrich) and combinations thereof. Subsequently, the cells were CD3/CD28-activated (Pelicluster CD3 and Pelicluster CD28, Sanquin) for an additional 24 hours. After incubation, IFNγ was measured by ELISA in the supernatants (see below). […] Roche) and/or 10% Triton (5 μl; negative control). […] Cytokine production of PBMC: PBMC were incubated with indicated reagents. After incubation, the supernatants were collected and IL2, IL6, IL10, IL13, IL21, TNFα, IFNγ, MIF, CCL1, CCL13, CCL17, CCL20, CCL22 and CXCL8-11 levels were measured by conducting a validated multiplex immunoassay based on Luminex technology (xMAP, Luminex Austin Tex. USA). Acquisition was conducted with the Biorad […] (Biorad laboratories, Hercules USA) in combination with xPONENT software version 4.2 (Luminex). Data was analyzed by 5-parametric curve fitting using Bio-Plex Manager software, version 6.1.1 (Biorad). After PBMC stimulation, cell culture supernatants were collected, after which cytokine responses were measured in order to test immune responsiveness of the cells. The levels of cytokines measured in stimulated conditions were corrected for the (low) levels of the cytokines measured in non-stimulated conditions. In addition, since each donor is reacting in its own efficiency onto the T cell stimulus, we calculated the individual index of cytokine response by dividing the intervention induced response by the basal stimulated response.

[3] = test system: human peripheral blood mononuclear cells (PBMC); assay: PBMC cell activity (WST-1); type: cell-based; conditions: after 24 h
Protocol: PBMC activation model: PBMC (0.2.10^6 cell/well) were cultured in 96-well flat bottom plates (Corning). For 24 hours the cells were pre-incubated with 2′-FL (Jennewein), 3′-GL (0-0.3% w/v; […] Sigma Aldrich) and combinations thereof. Subsequently, the cells were CD3/CD28-activated (Pelicluster CD3 and Pelicluster CD28, Sanquin) for an additional 24 hours. After incubation, IFNγ was measured by ELISA in the supernatants (see below). […] Roche) and/or 10% Triton (5 μl; negative control).

Caco-2 cell monolayer = assay: DON-induced impairment of Caco-2 cell monolayer integrity (TEER, lucifer yellow flux); type: cell-based, human; conditions: 24 h pretreatment with 0.75 wt. % GL, then DON 4.2 μM 24 h; FIGS. 1A-D
Protocol: Caco-2 cells were used according to established methods. In brief: cells were cultured in Dulbecco's modified Eagle medium (DMEM) and seeded at a density of 0.3×10^5 cells into 0.3 cm^2 high pore density (0.4 μm) inserts with a polyethylene terephthalate membrane (BD Biosciences, Franklin Lakes, N.J., USA) placed in a 24-well plate. The Caco-2 cells were maintained in a humidified atmosphere of 95 air and 5% CO2 at 37° C.
Caco-2 cell monolayers were thus grown in a transwell system, which is a model for intestinal barrier function. The monolayers were pretreated for 24 h with different GLs, including beta3′-GL, alpha3′-GL, beta4′-GL and beta6′-GL in a concentration of 0.75 wt. % of the GL, before being exposed to the fungal toxin deoxynivalenol (DON), which is a trigger and model compound to impair intestinal barrier. DON was diluted to a final concentration of 4.2 μM in complete cell medium and added to the apical side as well as to the basolateral side of the transwell inserts. […] Incubation with DON was 24 h.
Measurements of the transepithelial electrical resistance (TEER) and lucifer yellow (LY) permeability were conducted to investigate barrier integrity. For TEER measurements a Millicel-ERS voltohmmeter connected to a pair of chopsticks electrodes was used to measure the TEER values. Results are expressed as a percentage of the initial value. For paracellular tracer flux assay the membrane impermeable lucifer yellow (LY) (Sigma, St Louis, Mo., USA) was added in a concentration of 16 μg/ml to the apical compartment in the transwell plate for 4 h, and the paracellular flux was determined by measuring the fluorescence intensity in the basolateral compartment with a spectrophotofluorimeter (FLUOstar Optima, BMG Labtech, Offenburg, Germany) set at excitation and emission wavelengths of 410 and 520 nm, respectively. Release of interleukin-8 (IL-8 or CXCL8), which is a typical marker for inflammation, was quantified in the medium of the apical side and the basolateral side of the Caco-2 transwell inserts in response to the treatments. CXCL8 concentrations were measured by using the human IL-8 ELISA assay (BD Biosciences, Pharmingem, San Diego, Calif., USA) according to manufacturer's instructions. For more details on materials and methods see Akbari et al, 2016, Eur J Nutr. 56(5):1919-1930.

SMILES	IL-4 induced disruption of intestinal barrier function [1]	IL10 level compared to blanc control ([2]; 0.2% 2′-FL, 0.2 mM butyrate)	CCL20 level compared to blanc control ([2]; unstimulated)	Immune cell activity as measured by WST [3]	effect on DON-induced loss of epithelial barrier integrity (TEER, LY flux) (Caco-2 cell monolayer)
CCCC(=O)O [butyrate, butyric acid]	ameliorated	did not have an effect on IL10 levels	did not have a statistically significant effect	did not influence immune cell metabolic activity	–
OC[C@H]1O[C@@H](OC[C@H]2O[C@@H](O[C@H]3[C@H](O)[C@@H](O)C(O)O[C@@H]3CO)[C@H](O)[C@@H](O)[C@H]2O)[C@H](O)[C@@H](O)[C@H]1O (stereo partly drawn) [beta6′-GL, Gal (beta 1-6)-Gal (beta 1-4)-Glc, reference compound]	–	–	–	–	did not show a significant effect
OC[C@H]1O[C@H](O[C@H]2[C@@H](O)[C@@H](CO)O[C@@H](O[C@H]3[C@H](O)[C@@H](O)C(O)O[C@@H]3CO)[C@@H]2O)[C@H](O)[C@@H](O)[C@H]1O (stereo partly drawn) [alpha3′-GL, Gal (alpha 1-3)-Gal (beta 1-4)-Glc, reference compound]	–	–	–	–	did not prevent the DON-induced disrupted intestinal barrier
OC[C@H]1O[C@@H](O[C@@H]2[C@H](O)[C@@H](O)[C@H](O[C@H]3[C@H](O)[C@@H](O)C(O)O[C@@H]3CO)O[C@@H]2CO)[C@H](O)[C@@H](O)[C@H]1O (stereo partly drawn) [beta4′-GL, Gal (beta 1-4)-Gal (beta 1-4)-Glc, reference compound]	–	–	–	–	did not show a significant effect
